We go through 19 molecules from ChEMBL document CHEMBL1152793, “Targeted delivery of compounds to Trypanosoma brucei using the melamine motif” (Bioorg Med Chem, 2009).

Assay [1] concerns Trypanosoma brucei brucei. As to the kind of experiment: Antitrypanosomal activity against TbAT1 knock out Trypanosoma brucei brucei mutant after 48 hrs by alamar blue assay. The class given is functional, organism-based. A general note: Resazurin is reduced to fluorescent resorufin, in cell work by metabolically active cells.
Assay [2] deals with Trypanosoma brucei brucei. As to the kind of experiment: Antitrypanosomal activity against TbAT1 knock out and pentamidine-resistant Trypanosoma brucei brucei B48 mutant after 48 hrs by alamar blue assay. It counts as functional, organism-based.
Assay [3] deals with Trypanosoma brucei brucei. As to the kind of experiment: Antitrypanosomal activity against wild type Trypanosoma brucei brucei s427 after 48 hrs by alamar blue assay. It counts as functional, organism-based. The note with it: s427, 48 h.
The test system of assay [4] is Trypanosoma brucei brucei. As to the kind of experiment: Resistance factor, ratio of IC50 for TbAT1 knock out Trypanosoma brucei brucei mutant to IC50 for wild type Trypanosoma brucei brucei s427. The class given is functional.
Assay [5] deals with Trypanosoma brucei brucei. In words: Resistance factor, ratio of IC50 for TbAT1 knock out and pentamidine-resistant Trypanosoma brucei brucei B48 mutant to IC50 for wild type Trypanosoma brucei brucei s427. The class given is functional.
For assay [6], the system named is Trypanosoma brucei brucei. In words: Inhibition of DNA replication in wild type Trypanosoma brucei brucei s427 assessed as kinetoplast disintegrate at IC50 after 24 hrs by DAPI staining visualized by fluorescence microscopy. It counts as functional, organism-based.

Each structure is given as a SMILES string. Calls of active or inactive are those of the source. No cut-off for these calls is given here.

`CC1COc2c(N3CCN(C)CC3)c(F)cc3c(=O)c(C(=O)NCCCNc4nc(N)nc(N)n4)cn1c23` (stereo not drawn): the IC50 (usually the point on the concentration scale where inhibition reaches its midpoint) in assay [1] was greater than 100 µM; in assay [2], greater than 100 µM; in assay [3] it was 112 µM.

Consider `CCn1cc(C(=O)O)c(=O)c2cc(F)c(N3CCN(c4nc(N)nc(N)n4)CC3)cc21`, for which the “Ratio IC50” value in assay [4] came out at 6.3; in assay [5], 5.3. For the same molecule, the values for the half-maximal inhibitory concentration (IC50) in assay [1], in assay [2] and in assay [3] were 32.7 µM, 27.7 µM and 5.2 µM, respectively. For the same molecule, the outcome in assay [6] was inactive.

Turning to `C[C@H]1[C@H](OC(=O)CCC(=O)OCCCNc2nc(N)nc(N)n2)O[C@@H]2O[C@@]3(C)CC[C@H]4[C@H](C)CC[C@@H]1[C@@]24OO3`, the “Ratio IC50” value in assay [4] is 1.2; in assay [5], 3. The half-maximal inhibitory concentration (IC50) in assay [1] came to 5 µM; in assay [2], 12.1 µM; in assay [3], 4 µM.

Regarding `O=C(O)c1cn(C2CC2)c2cc(N3CCNCC3)c(F)cc2c1=O` [CIPROFLOXACIN], in assay [3], the IC50 turned out to be 17.2 µM.

For `C[C@H]1[C@H](OC(=O)CCC(=O)NCCCNc2nc(N)nc(N)n2)O[C@@H]2O[C@@]3(C)CC[C@H]4[C@H](C)CC[C@@H]1[C@@]24OO3`, the “Ratio IC50” value in assay [4] is recorded as 1.1; in assay [5], 2.7. In addition, the values for the IC50 in assay [1], in assay [2] and in assay [3] were 2.9 µM, 7.1 µM and 2.6 µM, respectively.

Molecule `CCn1cc(C(=O)O)c(=O)c2cc(F)c(N3CCNC(C)C3)c(F)c21` (stereo not drawn) [LOMEFLOXACIN] displayed an IC50 in assay [3] of 197 µM.

For `NCCCC(N)(C(=O)NCCCNc1nc(N)nc(N)n1)C(F)F` (stereo not drawn), the 50% inhibitory concentration (IC50) in assay [1], in assay [2] and in assay [3] was greater than 100 µM in each case.

`CCn1cc(C(=O)O)c(=O)c2cc(F)c(N3CCNCC3)cc21` [NORFLOXACIN]: in assay [3], 39.9 µM corresponded to half-maximal inhibition (IC50). The result in assay [6] was Active.

As to `CC(C)(C)OC(=O)NCCCC(N)(C(=O)NCCCNc1nc(N)nc(N)n1)C(F)F` (stereo not drawn), the “Ratio IC50” value in assay [4] turned out to be 0.3. The IC50 is 105 µM in assay [1], greater than 100 µM in assay [2] and 355 µM in assay [3].

In assay [3], `C[C@@H]1CN(c2c(F)c(N)c3c(=O)c(C(=O)O)cn(C4CC4)c3c2F)C[C@H](C)N1` [SPARFLOXACIN] returned an IC50 of 18.5 µM.

`C[C@H]1[C@H](OC(=O)CCC(=O)O)O[C@@H]2O[C@@]3(C)CC[C@H]4[C@H](C)CC[C@@H]1[C@@]24OO3` [ARTESUNATE]: the results for the “Ratio IC50” value in assay [4] and in assay [5] were 1.2 and 2.1, respectively. For the same molecule, the IC50 came to 15 µM in assay [1], 27.5 µM in assay [2] and 12.8 µM in assay [3].

On to `NCCCNc1nc(N)nc(N)n1`, for which the IC50 in assay [1], in assay [2] and in assay [3] was greater than 100 µM each time.

For `NCCCC(N)(C(=O)OCCCNc1nc(N)nc(N)n1)C(F)F` (stereo not drawn), the concentration for half-maximal inhibition (IC50) in assay [1], in assay [2] and in assay [3] was greater than 100 µM each time.

In assay [3], `Nc1nc(N)nc(N2CCN(c3cc4c(cc3F)c(=O)c(C(=O)O)cn4C3CC3)CC2)n1` displayed an IC50 of 4940 µM.

As for `Nc1nc(N)nc(NCCCO)n1`, the IC50 in assay [1], in assay [2] and in assay [3] was greater than 100 µM each time.

Turning to `CC1COc2c(N3CCN(C)CC3)c(F)cc3c(=O)c(C(=O)OCCCNc4nc(N)nc(N)n4)cn1c23` (stereo not drawn), the “Ratio IC50” value is 1.1 in assay [4] and 1 in assay [5]. The IC50 is 35.7 µM in assay [1], 31.5 µM in assay [2] and 31.6 µM in assay [3].

`CC1COc2c(N3CCN(C)CC3)c(F)cc3c(=O)c(C(=O)O)cn1c23` (stereo not drawn) [OFLOXACIN] yielded an IC50 in assay [3] greater than 100 µM.

For the molecule `CC(C)(C)OC(=O)NCCCC(N)(C(=O)OCCCNc1nc(N)nc(N)n1)C(F)F` (stereo not drawn), the “Ratio IC50” value in assay [4] was found to be 1; in assay [5] it was 2.3. Besides, the IC50 came out at 400 µM in assay [1], 888 µM in assay [2] and 382 µM in assay [3].

In turn, `Nc1nc(N)nc(NCCCC(N)(C(=O)O)C(F)F)n1` (stereo not drawn) gave an IC50 in assay [3] greater than 100 µM.
